Assay results from patent US11952379B2, “Small molecule modulators of PAR2 and uses thereof” (Arizona Board of Regents on Behalf of the University of …, priority 2018, dated 2024).

Assays:
PAR2 [1] = biological target: T1, PAR2 (Homo sapiens, UniProt P55085); experiment: Inhibition of PAR2 response induced by 2at-LIGRL-NH2 (FIG. 1); type: cell-based; conditions: antagonist against agonist 2at-LIGR1-NH2
T1 sequence (P55085 26-397): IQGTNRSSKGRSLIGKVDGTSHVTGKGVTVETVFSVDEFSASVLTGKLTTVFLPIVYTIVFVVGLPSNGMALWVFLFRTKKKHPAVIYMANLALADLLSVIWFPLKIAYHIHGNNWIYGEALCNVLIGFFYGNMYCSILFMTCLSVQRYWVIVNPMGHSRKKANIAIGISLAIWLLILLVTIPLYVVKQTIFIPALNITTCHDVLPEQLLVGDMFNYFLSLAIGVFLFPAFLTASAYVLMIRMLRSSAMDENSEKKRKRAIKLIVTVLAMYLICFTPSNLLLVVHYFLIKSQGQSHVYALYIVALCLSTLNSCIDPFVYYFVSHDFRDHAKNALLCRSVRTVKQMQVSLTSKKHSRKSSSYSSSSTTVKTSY

[2] = tested on: PAR2-dependent MAPK signaling; experiment: PAR2-dependent MAPK signaling (MAPK phosphorylation); type: cell-based
[3] = tested on: PAR2-dependent Ca^2+ signaling; experiment: PAR2-dependent Ca2+ signaling; type: cell-based
Description: Addition of 1.75 μM of the potent PAR2 agonist 2at-LIGRL-NH2 (C134) induced Ca^2+ signaling in 50% of the cells within the experiment.

PAR2 [4] = biological target: T2, PAR2 (Mus musculus, UniProt P55086); experiment: 2AT-evoked hyperalgesic priming in the hindpaw; type: in vivo; conditions: given locally into the mouse hindpaw; FIG. 3
T2 construct: from tissue; host or cells: live mice, hindpaw
T2 sequence (P55086 26-399): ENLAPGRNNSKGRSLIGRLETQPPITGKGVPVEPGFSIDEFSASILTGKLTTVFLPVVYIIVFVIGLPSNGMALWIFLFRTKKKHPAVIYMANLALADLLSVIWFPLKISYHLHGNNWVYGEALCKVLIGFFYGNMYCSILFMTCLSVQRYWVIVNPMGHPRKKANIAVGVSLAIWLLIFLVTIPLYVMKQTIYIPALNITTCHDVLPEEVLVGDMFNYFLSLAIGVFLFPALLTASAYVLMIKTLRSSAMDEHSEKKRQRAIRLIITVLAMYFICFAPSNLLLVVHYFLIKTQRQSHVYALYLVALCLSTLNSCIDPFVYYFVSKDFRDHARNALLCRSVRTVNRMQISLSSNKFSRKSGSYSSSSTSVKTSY

PAR2 [5] = biological target: T2, PAR2; experiment: Mechanical hypersensitivity / paw withdrawal response to PAR2 agonist 2AT injected into the hindpaw; type: in vivo; conditions: mice
Description: Experiments were conducted to test C781 in vivo in mice for its ability to block mechanical hypersensitivity (a pain measure) in response to a PAR2 agonist (2AT-LIGRL, also known as 2AT).
Animals were injected with 2at (black), 2at+C781(yellow), or C781 alone (green).
Animals were systemically treated with C781 or control and then local injected with 2at (black with control; yellow with C781) or with vehicle alone (green). […] This is important because previous PAR2 antagonists have not had systemic bioavailability and have only worked with very high doses via intravenous injection.

concentration at which the 2at-LIGR1-NH2-induced PAR2 response was fully limited / compound was effective (PAR2 [1]) [nM]	IC50 ([2]; response induced by 600 nM 2at-LIGRL-NH2 (100% response), 95% CI: 3.4 μM-21 μM, FIG. 5, read-out: IC50 for reduction of PAR2-dependent MAPK phosphorylation) [µM]	effect on 2AT-evoked hyperalgesic priming (PAR2 [4])	effect on 2at-induced paw withdrawal response (pain) (PAR2 [5]; C781 given intraperitoneally 30 min prior to 2AT injection into the hindpaw, FIG. 4)	effect on paw withdrawal response of compound alone (PAR2 [5]; C781 injected locally with vehicle alone (no 2at), FIG. 2)	effect on 2at-induced paw withdrawal response (pain) (PAR2 [5]; C781 locally administered into hindpaw together with 2at, FIG. 2)	effect on paw withdrawal response after vehicle injection (PAR2 [5]; systemically administered C781, local vehicle alone, FIG. 4)	paw withdrawal response (pain) induced by agonist (PAR2 [5]; 2at injected into hindpaw, lower numbers indicative of pain)	Molecule	effect on PAR2-dependent Ca2+ signaling ([3]; administered with 1.75 μM 2at-LIGRL-NH2 (C134), FIG. 6)	induction of MAPK phosphorylation ([2]; agonist at 600 nM, set as 100% response)	cells showing Ca2+ signaling ([3]; agonist at 1.75 μM, percent of the cells within the experiment) [%]
100 to 300								CC(C)CC(=O)N1C[C@H](NC(=O)c2csc(N)n2)C(=O)N2C1CN(CC1CCNCC1)C(=O)[C@@H]2CC(C)C (stereo partly drawn) [C732]			
30 to 300	8.5	blocked 2AT-evoked hyperalgesic priming	reduced the 2at response	had no effect	reduced the 2at response	had no effect on vehicle treatment		CC(C)CC(=O)N[C@H]1CN(C(=O)c2ccco2)C2CN(CC3CCNCC3)C(=O)[C@H](CC(C)C)N2C1=O (stereo partly drawn) [C781]	no significant effect		
							induced a rapid withdrawal response	2-aminothiazol-LIGRL-NH2 [2at-LIGRL-NH2, reference compound]		induced significant phosphorylation of MAPK	50
